Assay results: ChEMBL document CHEMBL1143622 (J Med Chem, 2005)
pIC50, pKi: −log10 of the molar value.

Assays:
[1] = molecular target: Thrombin & trypsin (Homo sapiens) (UniProt P00734+P07477+P07478+P35030); test: Selectivity against Thrombin to that of trypsin; type: protein assay
[2] = Inhibitory activity against Coagulation factor X
[3] = Inhibitory activity against trypsin
[4] = Inhibitory activity against thrombin
[5] = molecular target: Integrin alpha-IIb/beta-3 (Homo sapiens, UniProt P05106+P08514); test: Inhibitory activity against binding of Fibrinogen to thrombocyte alpha IIb beta-3 integrin; type: protein-complex assay
Sequence of Integrin alpha-IIb/beta-3 (P05106 27-788 limits assumed): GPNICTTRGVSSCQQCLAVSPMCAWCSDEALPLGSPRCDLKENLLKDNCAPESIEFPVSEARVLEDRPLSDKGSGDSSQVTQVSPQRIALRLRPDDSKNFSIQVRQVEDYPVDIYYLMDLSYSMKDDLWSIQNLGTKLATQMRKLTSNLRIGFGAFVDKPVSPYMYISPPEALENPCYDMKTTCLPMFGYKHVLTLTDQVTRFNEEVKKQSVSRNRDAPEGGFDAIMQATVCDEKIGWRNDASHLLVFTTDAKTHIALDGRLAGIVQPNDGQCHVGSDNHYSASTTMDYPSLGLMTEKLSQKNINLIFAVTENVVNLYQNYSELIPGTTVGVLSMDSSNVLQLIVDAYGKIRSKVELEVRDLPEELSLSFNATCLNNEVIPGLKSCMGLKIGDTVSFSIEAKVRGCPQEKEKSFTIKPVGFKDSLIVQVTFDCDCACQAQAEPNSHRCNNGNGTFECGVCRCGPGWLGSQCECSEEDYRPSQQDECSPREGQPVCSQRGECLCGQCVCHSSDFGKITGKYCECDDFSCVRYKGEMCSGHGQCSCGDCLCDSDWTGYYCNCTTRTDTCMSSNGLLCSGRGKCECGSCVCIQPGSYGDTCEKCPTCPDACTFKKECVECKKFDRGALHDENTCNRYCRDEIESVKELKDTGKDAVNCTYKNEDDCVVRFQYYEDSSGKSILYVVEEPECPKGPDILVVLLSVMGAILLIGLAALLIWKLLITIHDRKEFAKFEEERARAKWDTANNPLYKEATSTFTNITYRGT
Sequence of Integrin alpha-IIb/beta-3 (P08514 32-887 limits assumed): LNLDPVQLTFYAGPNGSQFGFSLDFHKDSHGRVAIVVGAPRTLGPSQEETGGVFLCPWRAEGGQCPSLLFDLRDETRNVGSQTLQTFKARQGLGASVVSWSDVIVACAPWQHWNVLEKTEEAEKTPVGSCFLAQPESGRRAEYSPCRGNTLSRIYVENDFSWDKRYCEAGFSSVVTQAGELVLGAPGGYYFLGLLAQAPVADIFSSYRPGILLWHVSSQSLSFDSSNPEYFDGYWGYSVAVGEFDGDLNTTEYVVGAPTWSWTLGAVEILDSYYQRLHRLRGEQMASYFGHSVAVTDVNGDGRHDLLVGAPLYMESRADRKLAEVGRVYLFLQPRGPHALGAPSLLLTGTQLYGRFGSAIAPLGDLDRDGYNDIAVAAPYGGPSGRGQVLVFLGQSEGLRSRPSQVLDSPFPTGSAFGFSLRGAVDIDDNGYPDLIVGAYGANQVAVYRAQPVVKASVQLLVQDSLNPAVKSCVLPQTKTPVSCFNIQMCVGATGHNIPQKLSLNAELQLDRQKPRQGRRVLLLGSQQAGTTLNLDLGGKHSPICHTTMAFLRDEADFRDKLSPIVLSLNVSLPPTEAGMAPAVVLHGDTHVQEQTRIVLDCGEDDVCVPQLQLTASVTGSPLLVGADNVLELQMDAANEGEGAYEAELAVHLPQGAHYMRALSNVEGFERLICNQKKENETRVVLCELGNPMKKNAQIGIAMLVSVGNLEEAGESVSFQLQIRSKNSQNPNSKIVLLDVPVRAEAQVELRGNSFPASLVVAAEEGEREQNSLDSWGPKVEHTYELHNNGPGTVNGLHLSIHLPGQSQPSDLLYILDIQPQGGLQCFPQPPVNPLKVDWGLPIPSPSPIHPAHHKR
Sequence of Integrin alpha-IIb/beta-3 (P08514 891-1039 limits assumed): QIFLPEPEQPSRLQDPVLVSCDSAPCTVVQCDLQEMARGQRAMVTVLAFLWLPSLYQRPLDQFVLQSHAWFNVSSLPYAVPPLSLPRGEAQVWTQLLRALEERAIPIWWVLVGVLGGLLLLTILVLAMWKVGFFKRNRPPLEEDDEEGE

[6] = Inhibitory activity against thrombocyte aggregation induced by ADP; type: functional
[7] = Inhibitory activity against thrombocyte aggregation induced by collagen; type: functional

Structure (SMILES) | Selectivity [1] | pKi [2] | pKi [3] | pKi [4] | pKi [5] | pIC50 [6] | pIC50 [7]
N=C(N)c1ccc(CN2C(=O)COc3cc(NC(=O)C(Cc4ccccc4)C(=O)N[C@@H](CCC(=O)O)C(=O)O)ccc32)cc1 (stereo not given in full) | 0.4 | 4.59 | 4.75 | 4.31 | 6.69 |  | 
N=C(N)c1ccc(CN2C(=O)COc3cc(NC(=O)C(Cc4ccccc4)C(=O)O)ccc32)cc1 (stereo not given) | 0.1 | 4.50 | 5.26 | 4.27 | 5.40 |  | 
CN1C(=O)C(OCc2ccc(C(=N)N)cc2)Oc2cc(C(=O)N[C@@H](CC(=O)O)c3ccccc3)ccc21 (stereo not given in full) |  | < 3.70 | 4.58 | 4.83 | 5.79 |  | 
CCOC(=O)CC[C@H](NC(=O)[C@H](Cc1ccccc1)C(=O)Nc1ccc2c(c1)OCC(=O)N2Cc1ccc(C(=N)N)cc1)C(=O)OCC | 2 | 4.27 | 4.34 | 4.63 | 5.40 |  | 
CCOC(=O)[C@H](C)NC(=O)C(Cc1ccccc1)C(=O)Nc1ccc2c(c1)OCC(=O)N2Cc1ccc(C(=N)N)cc1 (stereo not given in full) | 0.57 | 4.57 | 4.92 | 4.67 | 5.14 |  | 
CCOC(=O)C[C@H](NC(=O)c1ccc2c(c1)OC(OCc1ccc(C(=N)N)cc1)C(=O)N2C)c1ccccc1 (stereo not given in full) | 4.2 | 4.26 | 4.80 |  | 4.61 |  | 

Now those with a higher pKi [2], led by results:

Selectivity [1] | pKi [2] | pKi [3] | pKi [4] | pKi [5] | pIC50 [6] | pIC50 [7] | Structure (SMILES)
0.14 | 4.65 | 5.28 | 4.41 | 6.01 | 4.20 | 4.07 | COC(=O)C(Cc1ccccc1)C(=O)Nc1ccc2c(c1)OCC(=O)N2Cc1ccc(C(=N)N)cc1 (stereo not given)
0.5 | 4.68 | 5.02 | 4.69 | 4.23 |  |  | CCOC(=O)[C@H](C)NC(=O)[C@H](Cc1ccccc1)C(=O)Nc1ccc2c(c1)OCC(=O)N2Cc1ccc(C(=N)N)cc1
0.69 | 4.69 | 5.08 | 4.92 | 5.16 |  |  | CCOC(=O)CNC(=O)C(Cc1ccccc1)C(=O)Nc1ccc2c(c1)OCC(=O)N2Cc1ccc(C(=N)N)cc1 (stereo not given)
0.5 | 4.72 | 4.98 | 4.67 | 5.44 |  |  | CCOC(=O)CC[C@H](NC(=O)C(Cc1ccccc1)C(=O)Nc1ccc2c(c1)OCC(=O)N2Cc1ccc(C(=N)N)cc1)C(=O)OCC (stereo not given in full)
0.3 | 5.06 | 5.26 | 4.79 | 5.28 |  |  | CCOC(=O)[C@H](Cc1ccccc1)C(=O)Nc1ccc2c(c1)OCC(=O)N2Cc1ccc(C(=N)N)cc1
